Laboratory results reported in patent US8759334B2, “Compounds useful for the treatment of metabolic and inflammatory diseases” (Galapagos NV, priority 2011, dated 2014).

molecular target: T1, GPR43 (Homo sapiens, UniProt O15552); assay: Calcium mobilization assay with probenecid; assay type: cell-based; details: GPR43 stably expressing cells; triggered with sodium acetate at EC80; 2.5 mM probenecid; read-out: GPR43 assay with probenicid IC50
T1 construct: expressed in transfected cells
T1 sequence (O15552 1-330): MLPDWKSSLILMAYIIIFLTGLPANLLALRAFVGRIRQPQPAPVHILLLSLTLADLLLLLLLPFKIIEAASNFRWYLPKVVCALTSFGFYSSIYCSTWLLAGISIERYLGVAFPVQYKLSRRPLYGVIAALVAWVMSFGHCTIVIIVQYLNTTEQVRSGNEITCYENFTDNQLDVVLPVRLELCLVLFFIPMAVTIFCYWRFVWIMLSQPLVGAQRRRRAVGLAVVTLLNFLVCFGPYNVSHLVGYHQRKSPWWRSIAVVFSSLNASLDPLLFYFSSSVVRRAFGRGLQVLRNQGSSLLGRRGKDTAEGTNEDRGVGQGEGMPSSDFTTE
Summary of the method: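 […] being added at rising concentrations to a GPR43 stable line. Before this, cells were dye-loaded (Calcium 4 with 2.5 mM probenecid) for 2 h at 37 °C after overnight plating.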

Row | Compound | IC50
1 | CC1(C(=O)N(CCCC(=O)O)Cc2ccc(Cl)cc2)CCN1C(=O)Oc1ccccc1F (stereo not drawn) [Compound 210, 4-(N-(4-chlorobenzyl)-1-((2-fluorophenoxy)carbonyl)-2-methylazetidine-2-carboxamido)butanoic acid] | > 1000 nM
2 | CC1(C(=O)N(CCCC(=O)O)Cc2ccc(Cl)cc2)CCN1C(=O)Oc1csc2ccccc12 (stereo not drawn) [Compound 211, 4-(1-((benzo[b]thiophen-3-yloxy)carbonyl)-N-(4-chlorobenzyl)-2-methylazetidine-2-carboxamido)butanoic acid] | 0.01 to 100 nM
3 | Cc1ccc(OC(=O)N2CCC2(C)C(=O)N(CCCC(=O)O)Cc2ccc(Cl)cc2)c(C)c1 (stereo not drawn) [Compound 213, 4-(N-(4-chlorobenzyl)-1-((2,4-dimethylphenoxy)carbonyl)-2-methylazetidine-2-carboxamido)butanoic acid] | > 1000 nM
4 | COc1ccc(Cl)c(OC(=O)N2CCC2(C)C(=O)N(CCCC(=O)O)Cc2ccc(Cl)cc2)c1 (stereo not drawn) [Compound 215, 4-(1-((2-chloro-5-methoxyphenoxy)carbonyl)-N-(4-chlorobenzyl)-2-methylazetidine-2-carboxamido)butanoic acid] | > 1000 nM
5 | CCC1(C(=O)N(CCCS(N)(=O)=O)Cc2ccc(Cl)cc2)CCN1C(=O)c1csc2ccccc12 (stereo not drawn) [Compound 216, 1-(benzo[b]thiophene-3-carbonyl)-N-(4-chlorobenzyl)-2-ethyl-N-(3-sulfamoylpropyl)azetidine-2-carboxamide] | 101 to 500 nM
6 | CC(C)C1(C(=O)N(CCCS(N)(=O)=O)Cc2cccc(Cl)c2)CCN1C(=O)c1csc2ccccc12 (stereo not drawn) [Compound 217, 1-(benzo[b]thiophene-3-carbonyl)-N-(3-chlorobenzyl)-2-isopropyl-N-(3-sulfamoylpropyl)azetidine-2-carboxamide] | 101 to 500 nM
7 | COc1cccc(OC(=O)N2CCC2(C)C(=O)N(CCCC(=O)O)Cc2ccc(Cl)cc2)c1 (stereo not drawn) [Compound 218, 4-(N-(4-chlorobenzyl)-1-((3-methoxyphenoxy)carbonyl)-2-methylazetidine-2-carboxamido)butanoic acid] | 101 to 500 nM
8 | O=C(O)CCCN(Cc1cccc(Cl)c1)C(=O)C1(Cc2ccc(F)cc2)CCN1C(=O)c1csc2ccccc12 (stereo not drawn) [Compound 219, 4-(1-(benzo[b]thiophene-3-carbonyl)-N-(3-chlorobenzyl)-2-(4-fluorobenzyl)azetidine-2-carboxamido)butanoic acid] | 101 to 500 nM
9 | Cc1cccc(CC2(C(=O)N(CCCC(=O)O)Cc3cccc(Cl)c3)CCN2C(=O)c2csc3ccccc23)c1 (stereo not drawn) [Compound 220, 4-(1-(benzo[b]thiophene-3-carbonyl)-N-(3-chlorobenzyl)-2-(3-methylbenzyl)azetidine-2-carboxamido)butanoic acid] | 501 to 1000 nM
10 | COc1cccc(CC2(C(=O)N(CCCC(=O)O)Cc3cccc(Cl)c3)CCN2C(=O)c2csc3ccccc23)c1 (stereo not drawn) [Compound 221, 4-(1-(benzo[b]thiophene-3-carbonyl)-N-(3-chlorobenzyl)-2-(3-methoxybenzyl)azetidine-2-carboxamido)butanoic acid] | 101 to 500 nM
11 | O=C(O)CCCN(Cc1cccc(Cl)c1)C(=O)C1(Cc2cccc(C(F)(F)F)c2)CCN1C(=O)c1csc2ccccc12 (stereo not drawn) [Compound 222, 4-(1-(benzo[b]thiophene-3-carbonyl)-N-(3-chlorobenzyl)-2-(3-(trifluoromethyl)benzyl)azetidine-2-carboxamido)butanoic acid] | > 1000 nM
12 | Cc1ccc(OC(=O)N2CCC2(C)C(=O)N(CCCC(=O)O)Cc2ccc(Cl)cc2)c(Cl)c1 (stereo not drawn) [Compound 223, 4-(1-((2-chloro-4-methylphenoxy)carbonyl)-N-(4-chlorobenzyl)-2-methylazetidine-2-carboxamido)butanoic acid] | > 1000 nM
13 | COc1ccc(OC(=O)N2CCC2(C)C(=O)N(CCCC(=O)O)Cc2ccc(Cl)cc2)c(Cl)c1 (stereo not drawn) [Compound 224, 4-(1-((2-chloro-4-methoxyphenoxy)carbonyl)-N-(4-chlorobenzyl)-2-methylazetidine-2-carboxamido)butanoic acid] | > 1000 nM
14 | O=C(O)CCCN(Cc1cccc(Cl)c1)C(=O)C1(Cc2ccc(Cl)cc2)CCN1C(=O)c1csc2ccccc12 (stereo not drawn) [Compound 225, 4-(1-(benzo[b]thiophene-3-carbonyl)-N-(3-chlorobenzyl)-2-(4-chlorobenzyl)azetidine-2-carboxamido)butanoic acid] | 501 to 1000 nM
15 | CC1(C(=O)N(CCCC(=O)O)Cc2ccc(Cl)cc2)CCN1C(=O)Oc1ccc(C(F)(F)F)cc1 (stereo not drawn) [Compound 226, 4-(N-(4-chlorobenzyl)-2-methyl-1-((4-(trifluoromethyl)phenoxy)carbonyl)azetidine-2-carboxamido)butanoic acid] | > 1000 nM
16 | CSc1ccc(OC(=O)N2CCC2(C)C(=O)N(CCCC(=O)O)Cc2ccc(Cl)cc2)cc1 (stereo not drawn) [Compound 227, 4-(N-(4-chlorobenzyl)-2-methyl-1-((4-(methylthio)phenoxy)carbonyl)azetidine-2-carboxamido)butanoic acid] | 501 to 1000 nM
17 | CCC1(C(=O)N(CCCC(=O)NS(C)(=O)=O)Cc2cccc(Cl)c2)CCN1C(=O)c1csc2ccccc12 (stereo not drawn) [Compound 228, 1-(benzo[b]thiophene-3-carbonyl)-N-(3-chlorobenzyl)-2-ethyl-N-(4-(methylsulfonamido)-4-oxobutyl)azetidine-2-carboxamide] | 0.01 to 100 nM
18 | C=CCC1(C(=O)N(CCCC(=O)NS(C)(=O)=O)Cc2cccc(Cl)c2)CCN1C(=O)c1csc2ccccc12 (stereo not drawn) [Compound 229, 2-allyl-1-(benzo[b]thiophene-3-carbonyl)-N-(3-chlorobenzyl)-N-(4-(methylsulfonamido)-4-oxobutyl)azetidine-2-carboxamide] | 0.01 to 100 nM
19 | CS(=O)(=O)NC(=O)CCCN(Cc1cccc(Cl)c1)C(=O)C1(Cc2ccccc2)CCN1C(=O)c1csc2ccccc12 (stereo not drawn) [Compound 230, 1-(benzo[b]thiophene-3-carbonyl)-2-benzyl-N-(3-chlorobenzyl)-N-(4-(methylsulfonamido)-4-oxobutyl)azetidine-2-carboxamide] | 101 to 500 nM
20 | C[C@@H](c1cccc(Cl)c1)N(CCCC(=O)NS(C)(=O)=O)C(=O)[C@@]1(C)CCN1C(=O)c1csc2ccccc12 [Compound 231, (R)-1-(benzo[b]thiophene-3-carbonyl)-N-((S)-1-(3-chlorophenyl)ethyl)-2-methyl-N-(4-(methylsulfonamido)-4-oxobutyl)azetidine-2-carboxamide] | 0.01 to 100 nM
21 | CCCC1(C(=O)N(CCCC(=O)NS(C)(=O)=O)Cc2cccc(Cl)c2)CCN1C(=O)c1csc2ccccc12 (stereo not drawn) [Compound 232, 1-(benzo[b]thiophene-3-carbonyl)-N-(3-chlorobenzyl)-N-(4-(methylsulfonamido)-4-oxobutyl)-2-propylazetidine-2-carboxamide] | 101 to 500 nM
22 | CC(C)C1(C(=O)N(CCCC(=O)NS(C)(=O)=O)Cc2cccc(Cl)c2)CCN1C(=O)c1csc2ccccc12 (stereo not drawn) [Compound 233, 1-(benzo[b]thiophene-3-carbonyl)-N-(3-chlorobenzyl)-2-isopropyl-N-(4-(methylsulfonamido)-4-oxobutyl)azetidine-2-carboxamide] | 101 to 500 nM
23 | CC1(C(=O)N(CCCC(=O)NS(C)(=O)=O)c2ccc(Cl)cc2)CCN1C(=O)c1csc2ccccc12 (stereo not drawn) [Compound 234, 1-(benzo[b]thiophene-3-carbonyl)-N-(4-chlorophenyl)-2-methyl-N-(4-(methylsulfonamido)-4-oxobutyl)azetidine-2-carboxamide] | 0.01 to 100 nM
24 | CC1(C(=O)N(CCCC(=O)O)Cc2ccc(Cl)cc2)CCN1C(=O)Oc1ccccc1Br (stereo not drawn) [Compound 235, 4-(1-((2-bromophenoxy)carbonyl)-N-(4-chlorobenzyl)-2-methylazetidine-2-carboxamido)butanoic acid] | > 1000 nM
25 | CC1(C(=O)N(CCCC(=O)O)Cc2ccc(Cl)cc2)CCN1C(=O)Oc1cc(C(F)(F)F)ccc1Cl (stereo not drawn) [Compound 236, 4-(1-((2-chloro-5-(trifluoromethyl)phenoxy)carbonyl)-N-(4-chlorobenzyl)-2-methylazetidine-2-carboxamido)butanoic acid] | > 1000 nM
26 | CC1(C(=O)N(CCCC(=O)O)Cc2ccc(Cl)cc2)CCN1C(=O)n1ccc2ccccc21 (stereo not drawn) [Compound 237, 4-(N-(4-chlorobenzyl)-1-(1H-indole-1-carbonyl)-2-methylazetidine-2-carboxamido)butanoic acid] | > 1000 nM
27 | CC1(C(=O)N(CCCC(=O)O)Cc2ccc(Cl)cc2)CCN1C(=O)Oc1ccc(Cl)cc1Cl (stereo not drawn) [Compound 238, 4-(N-(4-chlorobenzyl)-1-((2,4-dichlorophenoxy)carbonyl)-2-methylazetidine-2-carboxamido)butanoic acid] | > 1000 nM
28 | CC1(C(=O)N(CCCC(=O)O)Cc2ccc(Cl)cc2)CCN1C(=O)Oc1ccc(F)cc1Cl (stereo not drawn) [Compound 239, 4-(1-((2-chloro-4-fluorophenoxy)carbonyl)-N-(4-chlorobenzyl)-2-methylazetidine-2-carboxamido)butanoic acid] | > 1000 nM
29 | CC1(C(=O)N(CCCC(=O)NS(C)(=O)=O)Cc2ccc(Cl)cc2)CCN1C(=O)c1csc2ccccc12 (stereo not drawn) [Compound 240, 1-(benzo[b]thiophene-3-carbonyl)-N-(4-chlorobenzyl)-2-methyl-N-(4-(methylsulfonamido)-4-oxobutyl)azetidine-2-carboxamide] | 101 to 500 nM
30 | CS(=O)(=O)NC(=O)CCCN(Cc1cccc(Cl)c1)C(=O)C1(Cc2ccc(F)cc2)CCN1C(=O)c1csc2ccccc12 (stereo not drawn) [Compound 241, 1-(benzo[b]thiophene-3-carbonyl)-N-(3-chlorobenzyl)-2-(4-fluorobenzyl)-N-(4-(methylsulfonamido)-4-oxobutyl)azetidine-2-carboxamide] | 501 to 1000 nM
